Measurements reported in patent US20140272095A1, “GLUTAMIC ACID DERIVATIVES” (Givaudan S.A., priority 2011, published 2014).

Assays:
Assay type in all cases: in vivo
[1] = Flavourist tasting of a 0.5% NaCl / 0.03% MSG solution, umami intensity versus reference solution A (Example 2); details: 10 ppm compound in 0.5% NaCl and 0.03% MSG; average rating of 4 flavourists versus solution A; scale -3 (much lower than base) to 3 (much higher), 0 = same as base
Experimental: (§1) Two solutions were prepared: • A a solution of 0.5% NaCl and 0.03% MSG • B a solution of 0.5% NaCl and 0.03% MSG and 10 ppm Example 1 compound
(§2) The samples were tasted by a small group of flavourists (2 male, 2 female, aged between 30 and 60). The intensity of the umami and salt taste of solution B was compared with that of the reference (solution A) and rated according to the following intensity scale:
(§3) The results (average of ratings given by the flavourists) were: […]

[2] = Flavourist tasting of a 0.5% NaCl / 0.03% MSG solution, salt intensity versus reference solution A (Example 2); details: 10 ppm compound in 0.5% NaCl and 0.03% MSG; average rating of 4 flavourists versus solution A; scale -3 (much lower than base) to 3 (much higher), 0 = same as base
Experimental: as §1, §2, §3

[3] = Flavourist tasting, enhancement effect on NaCl (solution D versus A, Example 3); details: 10 ppm in 0.5% NaCl; marked between 0 and 10, greater value = greater effect; salt reference solution A = 0.0
Experimental: (§4) Six solutions were prepared: • A a solution of 0.5% NaCl • B a solution of 0.5% NaCl and 0.03% MSG • C a solution of 0.5% NaCl and 0.015% ribonucleotides • D a solution of 0.5% NaCl and 10 ppm Example 1 compound • E a solution of 0.5% NaCl and 0.03% MSG and 10 ppm Example 1 compound • F a solution of 0.5% NaCl and 0.015% ribonucleotides and 10 ppm Example 1 compound
(§5) The samples were tasted by a group of 5-10 flavourists aged between 30 and 60. The taste of solution D is compared with that of A to determine the enhancement effect of Example 1 compound on NaCl. Similarly, solution E is compared with solution B and solution F with solution C to determine the enhancement effect of Example 1 compound on MSG and ribonucleotides respectively. The effect is marked between 0 and 10, the greater the value the greater the effect.

[4] = Flavourist tasting, enhancement effect on MSG (solution E versus B, Example 3); details: 10 ppm in 0.5% NaCl and 0.03% MSG; marked between 0 and 10; MSG reference solution B = 5.0
Experimental: as §4, §5

[5] = Flavourist tasting, enhancement effect on ribonucleotides (solution F versus C, Example 3); details: 10 ppm in 0.5% NaCl and 0.015% ribonucleotides; marked between 0 and 10; ribo reference solution C = 5.0
Experimental: as §4, §5

[6] = Bread comparison by a panel of professional tasters (Example 5); details: bread B: 20 g NaCl and 0.025 g compound in the flour mixture; bread A: 20 g NaCl only
Experimental: A bread flour mixture was prepared by mixing 1250 g of wheat flour, 250 g of white wheat flour and 60 g of yeast. Two salt mixtures were added to separate flour mixtures: • A 20 g of NaCl • B 20 g of NaCl and 0.025 g (+−)-1-aminocyclopentane-trans-1,3-dicarboxylic acid
Doughs were prepared by mixing the ingredients and adding 900 g of water. The doughs were allowed to rise at room temperature for 2 hours and baked at 220° C. for 45 minutes.
A panel of professional tasters compared the breads. The bread B was preferred over reference bread A.

[7] = Bouillon tasting by flavourists versus reference bouillon (Example 4); details: 250 ppm in bouillon (32 g mix in 1 L boiling water); 4 flavourists
Experimental: A bouillon mix was prepared from 155.0 g of sodium chloride, 157.0 g of dextrose monohydrate (ex Tapioca), 0.2 g of celery oleoresin, 0.3 g of oleoresin turmeric Vegex, 0.2 g of oleoresin coriander seed, 444.8 g maltodextrin 5-8 DE, 40.0 g vegetable oil soya bean refined, 30.0 g yeast standard light, 4.0 g of onion powder, 4.0 g of garlic powder, 0.5 g of white pepper and 164.0 g of potato starch.
32 g of the well-mixed ingredients was added to 1 L of boiling water and stirred until completely dissolved.
A small group of flavourists (2 male, 2 female) compared the taste of the reference bouillon with that of a batch of the same bouillon containing 250 ppm of 2-(amino(carboxy)methyl)-cyclopropanecarboxylic acid. The flavourists agreed that the test bouillon was more umami and saltier than the reference bouillon.

Structure (SMILES)	Intensity Taste Umami [1]	Intensity Taste Salt (NaCl) [2]	NaCl Taste [3]	MSG taste [4]	Ribo taste [5]	Preference of bread B over reference bread A [6]	Salt taste of test bouillon versus reference bouillon [7]	Umami taste of test bouillon versus reference bouillon [7]
N[C@@]1(C(=O)O)CC[C@H](C(=O)O)C1 (racemic) [(±)-1-Aminocyclopentane-trans-1,3-dicarboxylic acid]	0.00	1.00	2.0	5.3	6.3	preferred	–	–
N[C@]1(C(=O)O)CC[C@H](C(=O)O)C1 (racemic) [(±)-1-Aminocyclopentane-cis-1,3-dicarboxylic acid]	0.00	1.00	1.3	6.7	5.2	–	–	–
CCOC(=O)C(N)C1CC1C(=O)OC.Cl (centres unmarked) [methyl 2-(1-amino-2-ethoxy-2-oxoethyl)cyclopropanecarboxylate, HCl]	1.00	0.00	0.0	5.5	5.4	–	–	–
NC(C(=O)O)C1CC1C(=O)O (centres unmarked) [2-(amino(carboxy)methyl)cyclopropanecarboxylic acid]	1.00	0.00	1.2	6.3	5.7	–	saltier	more umami
